Results taken from ChEMBL document CHEMBL3351582, “A simple, general approach of allosteric coagulation enzyme inhibition through monosulfated hydrophobic scaffolds” (Bioorg Med Chem Lett, 2014).

Key:
[1] = Anticoagulant activity in human […] assessed as concentration required to double activated partial thromboplastin time; type: functional
[2] = target: Coagulation factor XI (Homo sapiens, UniProt P03951); experiment: Inhibition of human factor 11a by spectrophotometric assay
[3] = target: Prothrombin (Homo sapiens, UniProt P00734); experiment: Inhibition of human thrombin using spectrozyme TH as substrate by spectrophotometric assay
[4] = target: Coagulation factor X (Homo sapiens, UniProt P00742); experiment: Inhibition of human factor 10a by spectrophotometric assay
Coagulation factor X, sequence (P00742 41-179 limits assumed): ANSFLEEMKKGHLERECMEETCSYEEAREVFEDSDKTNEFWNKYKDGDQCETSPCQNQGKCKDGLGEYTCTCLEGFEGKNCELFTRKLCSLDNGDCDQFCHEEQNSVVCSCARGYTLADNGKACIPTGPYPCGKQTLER
Coagulation factor X, sequence (P00742 235-488 limits assumed): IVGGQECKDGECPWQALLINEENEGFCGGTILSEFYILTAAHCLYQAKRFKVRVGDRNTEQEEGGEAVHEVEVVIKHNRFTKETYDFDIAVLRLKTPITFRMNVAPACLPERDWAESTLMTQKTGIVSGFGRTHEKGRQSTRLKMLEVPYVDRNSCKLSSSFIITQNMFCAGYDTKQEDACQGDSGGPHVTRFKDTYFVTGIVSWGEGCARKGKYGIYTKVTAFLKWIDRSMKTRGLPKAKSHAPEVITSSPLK

[5] = Anticoagulant activity in human […] assessed as concentration required to double prothrombin time; type: functional

Coagulation factor XI, sequence (P03951 19-387 limits assumed): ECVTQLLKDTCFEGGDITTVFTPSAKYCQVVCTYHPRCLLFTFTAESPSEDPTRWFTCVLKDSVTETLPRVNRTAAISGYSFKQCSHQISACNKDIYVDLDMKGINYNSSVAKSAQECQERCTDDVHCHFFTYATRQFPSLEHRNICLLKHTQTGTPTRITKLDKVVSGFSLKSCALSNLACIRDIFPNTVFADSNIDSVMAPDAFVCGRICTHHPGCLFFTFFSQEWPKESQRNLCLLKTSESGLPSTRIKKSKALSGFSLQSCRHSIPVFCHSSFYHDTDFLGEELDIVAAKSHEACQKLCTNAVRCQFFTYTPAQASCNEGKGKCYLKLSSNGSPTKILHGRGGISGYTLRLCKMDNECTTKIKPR
Coagulation factor XI, sequence (P03951 388-625 limits assumed): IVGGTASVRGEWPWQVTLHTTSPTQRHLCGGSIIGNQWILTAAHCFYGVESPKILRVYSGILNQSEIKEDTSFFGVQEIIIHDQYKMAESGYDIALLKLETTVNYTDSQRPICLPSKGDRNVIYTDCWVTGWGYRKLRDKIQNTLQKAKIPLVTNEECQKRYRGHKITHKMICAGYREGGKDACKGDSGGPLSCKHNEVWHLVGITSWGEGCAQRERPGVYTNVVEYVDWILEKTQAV

Row | SMILES | 2aPTT [1] [µM] | IC50 ([2]; read-out: IC50) [µM] | IC50 [3] [µM] | IC50 ([4]; read-out: IC50) [µM] | 2PT [5] [µM] | IC50 [2] | IC50 [4]
1 | CCOC(=O)c1c(C)[nH]c2ccc(OCc3c(C(=O)OCC)c4cc(OS(=O)(=O)[O-])ccc4n3C(=O)OC(C)(C)C)cc12.[Na+] | 424 | 220 | 425 | 229 | 1475 | – | –
2 | COc1cc2occ(C(=O)OC(C)(C)C)c2cc1OCc1nc2ccc(OS(=O)(=O)O)cc2s1 | – | 124 | 146 | 352 | – | – | –
3 | CCOC(=O)c1c(COc2cc3c(C(=O)OCC)c(Cc4ccccc4)oc3cc2OC)[nH]c2ccc(OS(=O)(=O)[O-])cc12.[Na+] | 1021 | 118 | 327 | 195 | 2361 | – | –
4 | CCOC(=O)c1c(COc2cc3c(C(=O)OCC)c(COc4cc5c(C(=O)OCC)c(C)oc5cc4OC)oc3cc2OC)[nH]c2ccc(OS(=O)(=O)[O-])cc12.[Na+] | 755 | 86.9 | 304 | 344 | 845 | – | –
5 | Cc1nc2ccc(OCc3nc4ccc(OS(=O)(=O)[O-])cc4s3)cc2s1.[Na+] | – | – | 327 | – | – | Not Active | Not Active
